Structures can show the parent of a compound that is named as a salt. Where two headings read alike, the source gives them in different places.

Data set [1] can be described thus: Solubility characteristics. Format: physicochemical.
Another data set can be described thus: in vivo. The note with it: mouse, in vivo, mice, isotonic aqueous solution. On the procedure: It is determined on mice, the products being administered orally, intraperitoneally, and intraveneously in isotonic aqueous solution.
In the next data set the test system is guinea pigs. As to the kind of experiment: Citric acid aerosol method on guinea pigs (antitussive). It is filed as in vivo. The note with it: orally, citric acid aerosol. On the procedure:
The animals were subjected to a 20% citric acid aerosol for 15 minutes.
The coughs were recorded by a microphone.
The products were administered intraperitoneally 20 minutes before the exposure to the aerosol.
Some derivatives were also tested orally.

Data set [2] can be described thus: Hygroscopicity of crystals. Format: physicochemical.
The subject of a further data set is Pseudomonas aeruginosa. As to the kind of experiment: Fungistatic/bacteriostatic effect, Pseudomonas aeruginosa. The note with it: compared with S. aureus and E. coli. Format: cell-based. On the procedure: (§1) The determination of fungistatic bacteriostatic properties was carried out by two methods on four strains:
(§2) Halved serial dilutions are formed in a hemoylsis tube, in each case to a volume of 1 ml; each dilution is inoculated with 10^6 micro-organisms per ml. After 48 hours in the oven, the minimum inhibitory concentration is determined. A subculture of the negative tubes (bacteriostatic), makes it possible to note the bactericidal concentration.

In a further data set the test system is Candida albicans. Briefly: Fungistatic/bacteriostatic effect, Candida albicans. Format: cell-based. The note with it: compared with S. aureus and E. coli. Here is the method:
as §1, §2

A further data set has as its system micro-organisms. Briefly: Bactericidal action (subculture of the negative tubes). It is filed as cell-based. The note with it: at concentrations of 1 g percent. On the procedure: as §1, §2
Data set [3] is described as follows: Local anesthesia activity. The note with it: compared with procaine.
For a further data set, the system named is mice. As to the kind of experiment: Antalgic properties: decrease in contortions caused by phenyl benzoquinone, in mice. Format: in vivo. The following applies: 150 mg/kg by mouth. Here is the method: The antalgic properties with respect to a decrease in contortions caused by phenyl benzoquinone, as measured in mice, are very clear from the 150 mg/kg by mouth in the case of F 1534 (40% decrease), F 1539 (75% decrease), and F 1541 (60% decrease).

The mark [4] stands for this setting: ip, intraperitoneal, read-out: DL 50 intraperitoneal.

In the case of `CCC(C(=O)NCCN1CCCC1)c1ccccc1` (stereo not drawn) [F 1419, N(2'-pyrrolidino-ethyl)-α-phenyl-α-ethyl acetamide hydrochloride], the “Solubility in N-methyl pyrrolidone” value in [1] (N-methyl pyrrolidone, % soluble) is reported as 7%. The Solubility in ethanol in data set [1] (% soluble) is on record as 15%. Further, the Solubility in ether result in data set [1] (ether, in words) is “insoluble”. Also, the “Solubility in propylene glycol” value in data set [1] (% soluble) is reported as 25%. Moreover, the Solubility in water entry in [1] (in words) is listed as “very soluble”. In addition, the LD50 in “in vivo” (setting [4]) is 200 mg/kg; in “in vivo” (iv, intravenous, read-out: DL 50 intravenous), 76 mg/kg; in the data set “in vivo” (po, oral, read-out: DL 50 oral), 660 mg/kg. Further, the entries for the “% decrease in no. coughs in 15 mins.” value in the data set with guinea pigs (50 mg/kg) and in the data set with guinea pigs (100 mg/kg) were -22 and -40, respectively. Also, the Hygroscopicity entry in [2] is recorded as “slightly hygroscopic”.

As for `O=C(NCCN1CCCC1)C1c2ccccc2Oc2ccccc21` [F 1534, N(2'-pyrrolidino-ethyl)-9-xanthene carboxamide hydrochloride], in [1] (% soluble), the Solubility in ethanol is reported as 10% and the “Solubility in propylene glycol” value is listed as 10%. Further, the Solubility in water entry in data set [1] (in words) is given as “very soluble”. The LD50 in “in vivo” (setting [4]) was found to be 178 mg/kg. Besides, the LD50 in the data set “in vivo” (po, oral, read-out: DL 50 oral) is 750 mg/kg. Moreover, the “effect on Pseudomonas aeruginosa” value in the data set on Pseudomonas aeruginosa was “more moderate but significant effect”. Besides, the “effect on Candida albicans” value in the data set with Candida albicans is “more moderate but significant effect”. Besides, the bactericidal action entry in the data set with micro-organisms is “real and significant”. Also, in data set [3], the local anesthesia activity entry was “high order of local anesthesia activity comparable to that of procaine”. For the same compound, the “decrease in contortions caused by phenyl benzoquinone” value (“decrease in contortions caused” below) in the data set with mice turned out to be 40%.

Take `O=C(COc1ccc(Cl)cc1)NCCN1CCCC1` [F 1539, N(2'-pyrrolidino-ethyl)-4-chloro-phenoxy-acetamide hydrochloride]: in data set [1] (in words), the Solubility in ethanol entry is “soluble”, the “Solubility in propylene glycol” value is “soluble” and the Solubility in water entry was “soluble”. In addition, in the data set “in vivo” (setting [4]), the LD50 was 178 mg/kg. The LD50 in “in vivo” (po, oral, read-out: DL 50 oral) is 1000 mg/kg. Besides, in the data set on mice, the “decrease in contortions caused” value came out at 75%.

On to `CC(C)(Oc1ccc(Cl)cc1)C(=O)NCCN1CCCC1` [F 1541, N(2'-pyrrolidino-ethyl)-4-chloro-phenoxy-isobutyramide hydrochloride], for which, in data set [1] (in words), the Solubility in ethanol result is “Soluble”, the “Solubility in propylene glycol” value is “Soluble” and the Solubility in water entry was “Soluble”. In addition, in “in vivo” (setting [4]), the LD50 is 178 mg/kg. Also, the LD50 in the data set “in vivo” (po, oral, read-out: DL 50 oral) is 562 mg/kg. Also, in [3], the local anesthesia activity entry is “high order of local anesthesia activity comparable to that of procaine”. The “decrease in contortions caused” value with mice came to 60%.

The values above are taken from patent US4122199A, “Amides of pyrrolidinoethylamine which can be used in treatment of coughs” (Pierre Fabre S.A., priority 1976, dated 1978).
